Earlier results as cited in patent publication US20220079967A1, “COMPOSITION FOR IMPROVING VASCULAR ENDOTHELIAL FUNCTION” (SAN-EI GEN F.F.I., INC., priority 2019, published 2022).

Tested on: endothelial function and blood pressure
Details: administered to human, also with increased dosage (Bondonno et al. 2016)

O=c1c(O[C@@H]2O[C@H](CO)[C@@H](O)[C@H](O)[C@H]2O)c(-c2ccc(O)c(O)c2)oc2cc(O)cc(O)c12 [isoquercitrin]
effect on FMD value: does not affect
effect on blood pressure: does not affect
